The structures appear in SMILES notation.

One test has as its system myocardiale Radiocalciumaufnahme. The test can be described thus: Cardioprotective effect in conscious rats: inhibition of isoprenaline-induced myocardial radiocalcium uptake (method of Arndts). On the set-up: unit not given here. The class given is in vivo, Ratten. Particulars: oral administration (perorale Wirkstoffabgabe), dose inhibiting by 50 % the myocardial radiocalcium uptake caused by 30 mg/kg s.c. Isoprenalin. From the text:
Insbesondere weisen diese Substanzen eine deutliche cardioprotektive Wirkung auf, die wie folgt bestimmt wurde: • Bekanntlich ist der myocardiale Ca(2+)-Gehalt ein Maß für die hypoxische bzw. durch toxische Catecholamindosen hervorgerufene Herzschädigung (Higgins et al., Mol. Cell. Cardiol. 10, 427-438, 1984; Nakanishi et al., Am. J. Physiol. 242, 437-449, 1982; Fleckenstein, A. Vorträge der Erlanger Physiol. Tagung 1970, Edit. Keidel, Springer Verlag Berlin, Heidelberg, New York, 1971). Umgekehrt ist die Inhibition der hypoxischen oder Isoprenalin-bedingten myocardialen Calciumaufnahme ein Maß für die cardioprotektive Effektivität von Calciumantagonisten (Fleckenstein, s.o.), von Calmodulininhibitoren (Higgins) und anderen Pharmaka, z.B. Betaadrenolytika (Arndts, Arzneimittelforschung 25, 1279-1284, 1975). Die cardioprotektive Wirkung wurde an wachen Ratten nach subcutaner oder peroraler Wirkstoffabgabe anhand der von Arndts (s.o.) beschriebenen Methode festgestellt und die Wirkungsstärke der Testsubstanzen als Hso-Wert angegeben. Dieser Wert entspricht der Dosis, die die durch eine Gabe von 30 mg/kg s.c. Isoprenalin bedingte myocardiale Radiocalciumaufnahme zu 50 % hemmt.
With `COc1cc2c(cc1OC)C(CC(=O)NN(C)C)=NCC2` [B], the H50-Wert was found to be 2.26.

Take `CCCCC(C(=O)NCC(C)C)C1=NCCc2cc(OC)c(OC)cc21` (stereo not drawn) [C, α-Isobutylaminocarbonyl-1-pentyl-6,7-dimethoxy-3,4-dihydro-isochinolin]: the H50-Wert stood at 1.34.

In the case of `CCCCC(C(=O)NC(C)C)C1=NCCc2cc(OC)c(OC)cc21` (stereo not drawn) [D], the H50-Wert is given as 2.25.

Take `CCCCC(C(=O)NCCc1ccccn1)C1=NCCc2cc(OC)c(OC)cc21` (stereo not drawn) [E]: the H50-Wert turned out to be 2.29.

`CCCCC(C(=O)NC)C1=NCCc2cc(OC)c(OC)cc21` (stereo not drawn) [F]: the H50-Wert is reported as 1.41.

Regarding `CCCCC(C(=O)NCCOC)C1=NCCc2cc(OC)c(OC)cc21` (stereo not drawn) [G], the H50-Wert is 2.23.

For the compound `COc1cc2c(cc1OC)C1(CCCC1)CNC2=CC1=NCC2(CCCC2)c2cc(OC)c(OC)cc21` [Verbindung A], the H50-Wert came to 1.25.

As to `CCCCC(C(=O)NCC(C)O)C1=NCCc2cc(OC)c(OC)cc21` (stereo not drawn) [Verbindung H], the H50-Wert came to 2.15.

The subject of a further test is isolierten Rattenherzen. Put plainly: Cardioprotective effect on isolated rat hearts under ischaemia followed by reperfusion (duration of arrhythmia phase). Also on record: species or system Ratten. The settings on record: konz. 3,3 µg/ml; isolated rat heart, one hour ischaemia (flow 0.15 ml/min), then reperfusion. From the text:
Wird ein längere Zeit unter ischämischen Bedingungen gehaltenes, isoliertes Herz wieder normal perfundiert, so tritt keine sofortige Normalisierung der Herzfunktion ein. Es findet sich vielmehr eine vorübergehende Periode, die durch Kontraktur und Arrhytmien gekennzeichnet ist. Diese Arrhythmiephase ist durch Veränderungen von Funktion und Struktur der Myocardzelle mit intrazellulärer Calciumüberladung bedingt (Hess u. Manson, J. Mol. Cell. Cardiol. 16, 969, 1984). Cardioprotektiv wirksame Verbindungen wie Verapamil und Diltiazem verringern die Calciumüberladung und verbessern das Kontraktionsverhalten bei Reperfusion (Watts et al. Am. J. Physiol. 238, H 909, 1980; Meno et al. Am. J. Physiol. 247, H 380, 1984). Die cardioprotektive Wirkung wurde an isolierten Rattenherzen unter Ischämie und anschließender Reperfusion untersucht. Unter Kontrollbedingungen findet sich nach einstündiger Ischämie (Fluß 0.15 ml,min) eine Periode unregelmäßiger Herztätigkeit von 10-15 Minuten. Infusion von cardioprotektiven Verbindungen bewirkt eine signifikante Verkürzung dieser Periode.
On to `COc1cc2c(cc1OC)C(C(CCc1ccccc1)C(=O)NCCc1ccncc1)=NCC2` (stereo not drawn) [L], for which the “Verkürzung der Arrhythmie-phase von 11-13 min auf” value is 5,0 min.

Take `COc1cc2c(cc1OC)C1(CCCC1)CNC2=CC1=NCC2(CCCC2)c2cc(OC)c(OC)cc21` [Verbindung A]: the “Verkürzung der Arrhythmie-phase von 11-13 min auf” value is given as 4,0 min.

Still in this test, the particulars now being: konz. 6,6 µg/ml; isolated rat heart, one hour ischaemia (flow 0.15 ml/min), then reperfusion.
For `CCCCC(C(=O)NC(C)CCCC(C)C)C1=NCCc2cc(OC)c(OC)cc21` (stereo not drawn) [K], the “Verkürzung der Arrhythmie-phase von 11-13 min auf” value was 3,1 min.

The test is the same for the next values; noted with them: konz. 13,3 µg/ml; isolated rat heart, one hour ischaemia (flow 0.15 ml/min), then reperfusion.
In the case of `COc1cc2c(cc1OC)C(CC(=O)N1CCOCC1)=NCC2` [Verbindung I], the “Verkürzung der Arrhythmie-phase von 11-13 min auf” value is on record as 3,5 min.

The values are drawn from EP0288048A2, “Benzo- and thieno-3,4-dihydropyridine derivates, processes for their preparation, and medicaments containing them” (BOEHRINGER INGELHEIM KG, priority 1987, dated 1988).
